# From patent publication US20120157494A1, “ISOINDOLYL COMPOUNDS” (priority 2010, published 2012)
# Columns and labels:
# [1] = target: T1, hP2X7 (Homo sapiens, UniProt Q99572); experiment: Intracellular Calcium Flux (FLIPR) Assay; type: cell-based; conditions: 1321N1 cells stably expressing human P2X7; agonist 100 μM BzATP; 20 min equilibration with antagonist; read-out: FLIPR pIC50 hP2X7-1321n1 (converted)
# T1 construct: 1321N1 cells stably expressing the full length human P2X7 gene (1321N1-hP2X7); expressed in transfected cells
# T1 sequence (Q99572 1-595): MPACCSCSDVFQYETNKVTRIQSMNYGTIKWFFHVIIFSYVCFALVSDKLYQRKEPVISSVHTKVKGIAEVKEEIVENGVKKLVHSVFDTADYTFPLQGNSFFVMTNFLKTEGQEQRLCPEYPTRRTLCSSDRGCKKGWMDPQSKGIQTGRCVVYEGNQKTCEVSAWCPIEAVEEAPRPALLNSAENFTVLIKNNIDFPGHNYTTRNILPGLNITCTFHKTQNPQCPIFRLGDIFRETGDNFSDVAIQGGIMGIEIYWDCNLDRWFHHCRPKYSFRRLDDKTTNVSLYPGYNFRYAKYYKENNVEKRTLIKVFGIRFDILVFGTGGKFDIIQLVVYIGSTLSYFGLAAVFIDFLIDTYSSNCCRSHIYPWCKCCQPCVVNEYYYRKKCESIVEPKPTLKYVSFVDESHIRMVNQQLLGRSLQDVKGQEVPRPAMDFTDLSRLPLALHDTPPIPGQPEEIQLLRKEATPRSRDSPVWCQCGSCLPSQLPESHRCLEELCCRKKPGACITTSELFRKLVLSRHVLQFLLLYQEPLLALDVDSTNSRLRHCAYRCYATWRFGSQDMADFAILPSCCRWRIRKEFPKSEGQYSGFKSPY
# Method: Stock solutions of compounds were prepared from powders as a 10 mM DMSO stock solution. These solutions were stored at RT during the two week period of these experiments to prevent freeze-thaw of the DMSO stocks. The DMSO stocks were added to the appropriate assay buffer at a concentration of 10 μM, and then diluted serially to the final concentrations that were tested. No observable precipitate was formed at any time during this process. The aqueous solutions of compounds as well as ATP (Sigma A7699) and BzATP (Sigma B6396) were prepared fresh for each day of experiment.
# 1321N1 cells stably expressing the full length human P2X7 gene (1321N1-hP2X7) and HEK293 cells stably expressing the full length rat P2X7 gene (HEK293-rP2X7) were obtained from the Roche Cell Culture Facility. 1321N1-hP2X7 cells were grown in Dulbecco's Modified Eagle's Medium (DMEM) high glucose supplemented with 10% FBS and 250 μg/mL G418. HEK293-rP2X7 cells were grown in DMEM/F-12 supplemented with 10% FBS, 1 mM CaCl2, 2 mM MgCl2, 2 mM L-Glutamine and 500 μg/ml G418. Cells were split such that they never became >70% confluent.
# On the day prior to the experiment, 1321N1-hP2X7 or HEK293-rP2X7 cells were released into suspension with calcium-free PBS+Versene and washed by centrifugation with calcium-free PBS to remove the Versene. Cells were resuspended in growth medium at a density of 2.5×10^5 cells/mL and seeded into black walled, clear bottom 96 well plates (50,000 cells/well) approximately 18 hr prior to intracellular calcium flux experiments.
# On the day of the experiment, plates were washed with FLIPR buffer (calcium- and magnesium-free Hank's Balanced Salt Solution (HBSS) supplemented with 10 mM Hepes, 2.5 mM probenecid and 2 mM calcium chloride) using a BIO-TEK 96 channel plate washer and incubated with […] fluo-3 dye at 37° C. for one hr. The dye was then removed by plate washing and the cells were allowed to equilibrate for 20 min at room temperature with antagonist or vehicle (FLIPR buffer). Agonist (100 μM BzATP final concentration for hP2X7; 5 μM BzATP final concentration or rP2X7) was added online with the FLIPR and fluorescence measurements made at 1 sec intervals for 60 sec followed by 3 sec intervals for a further 4 min (5 min total). A final addition of 5 μM ionomycin was made and the maximal BzATP-evoked fluorescence normalized to the maximal ionomycin-evoked fluorescence.
structure (smiles),measurement,setting,value
"O=C(NCc1ccccc1O)[C@@H]1CCCN(c2cccc3c2C(=O)N(Cc2ccncc2)C3=O)C1 [Compound I-11, (R)-1-(1,3-Dioxo-2-pyridin-4-ylmethyl-2,3-dihydro-1H-isoindol-4-yl)-piperidine-3-carboxylic acid 2-hydroxy-benzylamide]",IC50,[1],100 nM
same,melting point,,181 to 182 °C
